Source: patent US20170182047A9, “Post-Translational Regulation of Catalytic Activities of Cytochrome P450 46A1 and Uses Thereof” (The Board of Regents of the University of Texas System, priority 2007, published 2017)
pIC50, pKd, pKi: −log10 of the molar value. Read-outs that look alike come from different tables or passages of the source.

Tests used:
[1] = test system: Cholesterol 24S-Hydroxylase (CYP46A1); assay: Brain sterol levels in mice after intraperitoneal voriconazole; format: in vivo, C57/B6 J mice
Experimental: (§1) The mice were sacrificed by cervical dislocation.
Lipids were extracted from the brain according to Folch with some modifications. Approximately 10 mg of brain tissue was added to 1 ml of homogenization buffer (5 mM EDTA, 50 μg/ml butylated hydroxytoluene in phosphate-buffered saline, pH 7,4) in a clean glass tube, and the tissue was disrupted using a polytron homogeniser. Three milliliters of chloroform:methanol (2:1, v:v) were added to the homogenate and the vials were mixed by vortexing. Samples were centrifuged at 10,000 g for 10 min. The organic phase was transferred to a new vial. The aqueous phase was re-extracted as described previously three more times. The pooled organic phase was dried under stream of argon gas, and chloroform:methanol (2:1, v:v) added to the dried samples to achieve suitable concentration.

[2] = Brain levels of voriconazole; format: in vivo, C57/B6 J mice; conditions: after 5 daily intraperitoneal injections (60 mg/kg body weight)
Experimental: as §1
Voriconazole was determined in serum and brain homogenates after the extraction with chloroform/methanol (2:1, v:v) and ethanol (10%, v/v, final), respectively. Voriconazole extract (100 μL) was then mixed with 200 μL acetonitrile, centrifuged at 10,000 g for 10 min, and 1 μL of the supernatant injected onto a Phenomenex Luna C18 3 μm column (100×2 mm) connected to the Agilent 1100 liquid chromatography-mass spectrometry system with an autosampler and solvent degasser. Gradient elution was with initial 35% B increasing to 100% B in 5 min (A=1% acetonitrile with 25 mM formic acid; B=100% acetonitrile with 25 mM formic acid). A structure analogue (UK115794, Pfizer Ltd) was used as internal standard. Ions were monitored in a positive mode at m/z 350 (voriconazole) and m/z 348 (internal standard).

[3] = target: full-length CYP46A1 (Homo sapiens, UniProt Q9Y6A2); assay: Inhibition/stimulation of cholesterol hydroxylase activity at fixed 43 μM test compound; format: biochemical; conditions: 2.7 μM cholesterol, 43 μM compound; FIG. 4A-4C
[4] = target: T1, CYP11A1 (Bos taurus, UniProt P00189); assay: Spectral binding assay of antifungal azoles; parameters: species or system bovine
T1 construct: Recombinant full-length human CYPs 46A1 and 27A1 and bovine CYP11A1 were expressed and purified; made in house
T1 sequence (P00189 40-520): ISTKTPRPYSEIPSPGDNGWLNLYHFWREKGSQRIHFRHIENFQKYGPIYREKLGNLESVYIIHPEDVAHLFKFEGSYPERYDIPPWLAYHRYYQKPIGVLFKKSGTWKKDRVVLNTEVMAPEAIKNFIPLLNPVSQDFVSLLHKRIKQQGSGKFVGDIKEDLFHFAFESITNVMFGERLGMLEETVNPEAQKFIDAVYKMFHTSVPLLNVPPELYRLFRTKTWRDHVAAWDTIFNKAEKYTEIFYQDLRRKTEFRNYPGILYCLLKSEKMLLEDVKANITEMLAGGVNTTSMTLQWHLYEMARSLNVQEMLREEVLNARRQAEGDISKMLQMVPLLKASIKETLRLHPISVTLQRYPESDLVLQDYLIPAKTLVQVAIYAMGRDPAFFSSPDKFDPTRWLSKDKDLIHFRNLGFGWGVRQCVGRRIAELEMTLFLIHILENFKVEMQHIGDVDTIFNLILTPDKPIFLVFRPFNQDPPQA
Experimental: (§2) Titrations of CYP46A1 were carried out in 50 mM potassium phosphate buffer (KPi), pH 7.2, containing 100 mM NaCl and 0.02% Cymal 6. CYPs 11A1 and 27A1 were in 50 mM KPi without any additives. Antifungal drugs were added from 0.2-5 mM stocks in 50% methanol. The apparent Kd and maximal absorbance change were estimated by non-linear least squares fitting using the quadratic form of the single-site binding equation (9).

[5] = test system: genes involved in cholesterol homeostasis; assay: mRNA expression in mouse brain after voriconazole; format: in vivo, C57/B6 J mice; conditions: 5 daily i.p. injections 60 mg/kg
Experimental: as §1
Total RNA was obtained from brain and liver tissue using Trizol (Invitrogen, Carlsbad, Calif.). cDNA was synthesised from 2 μg of total RNA using Capacity cDNA ReverseTranscription Kit (Applied Biosystems, Foster City, Calif.). Steady-state mRNA levels were estimated using Taqman probes (primer sequences available on request). All assays were run on an ABI Prism 7000 Sequense Detection System (Applied Biosystems; Foster City, Calif.). Estimation of a relative gene expression was performed using the comparative threshold cycle method, using hypoxathine-guanine phosphoribosyl transferase as endogenous control.

[6] = target: T2, CYP46A1 (Homo sapiens, UniProt Q9Y6A2); assay: Spectral binding assay of antifungal azoles; parameters: Recombinant full-length human CYPs 46A1 and 27A1 and bovine CYP11A1 were expressed and purified; made in house; conditions: 0.3 μM purified P450; read-out: estimated Kd
Experimental: as §2

[7] = test system: Cholesterol 24S-Hydroxylase (CYP46A1); assay: Plasma oxysterol levels in voriconazole-treated mice
Experimental: Seven week old male C57/B6 J mice from Charles River were injected intraperitoneally with voriconazole (60 mg/kg or 75 mg/kg, corresponding to 0.6 and 0.75 ml, respectively, of the drug solution). The control mice were injected with the same solutions containing no voriconazole. The mice were sacrificed by cervical dislocation. Brain and liver were collected, snap frozen in liquid nitrogen and stored at −80° C.

[8] = target: T2, CYP46A1; assay: In vitro IC50 and Ki for CYP46A1-catalysed hydroxylation; format: biochemical; parameters: Recombinant full-length human CYPs 46A1 and 27A1 and bovine CYP11A1 were expressed and purified; made in house; conditions: for pIC50: 5.4 μM cholesterol
Experimental: Cholesterol hydroxylation by CYP46A1 was assayed for 20 min at 37° C. in 1 ml of 50 mM KPi, pH 7.2, containing 100 mM NaCl, 0.02% Cymal 6, 40 μg dilauroylglycerol-3-phosphatidylcholine and 2U of catalase. […] The enzymatic reaction was initiated by NADPH (final 1 mM) and terminated by vortexing with 2 ml of CH2Cl2. The organic phase was isolated, evaporated, dissolved in methanol, and subjected to HPLC. […] In addition, the Ki for cholesterol 24-hydroxylation was estimated assuming a model of competitive inhibition.

[9] = 60 mg/kg i.p. once a day for 5 days

T2 sequence (Q9Y6A2 whole entry): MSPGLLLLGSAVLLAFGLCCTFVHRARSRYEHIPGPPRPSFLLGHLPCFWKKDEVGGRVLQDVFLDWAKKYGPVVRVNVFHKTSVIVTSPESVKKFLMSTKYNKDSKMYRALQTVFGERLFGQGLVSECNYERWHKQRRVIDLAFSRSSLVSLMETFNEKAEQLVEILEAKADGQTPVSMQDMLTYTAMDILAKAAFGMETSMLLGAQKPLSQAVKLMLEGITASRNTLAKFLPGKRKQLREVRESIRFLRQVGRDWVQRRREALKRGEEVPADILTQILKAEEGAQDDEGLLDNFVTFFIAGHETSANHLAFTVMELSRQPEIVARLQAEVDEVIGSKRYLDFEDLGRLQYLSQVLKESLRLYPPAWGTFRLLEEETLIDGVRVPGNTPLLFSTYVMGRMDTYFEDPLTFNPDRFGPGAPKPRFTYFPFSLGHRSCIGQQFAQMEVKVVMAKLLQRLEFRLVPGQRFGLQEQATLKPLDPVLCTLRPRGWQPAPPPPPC
full-length CYP46A1, sequence (Q9Y6A2 whole entry): as above

Structure (SMILES): C[C@@H](c1ncncc1F)[C@](O)(Cn1cncn1)c1ccc(F)cc1F [voriconazole]
- effect on the levels of 27-hydroxycholesterol in the brain [1, 9]: no effect
- effect on the levels of cholesterol in the brain [1, 9]: no effect
- level of lathosterol in the brain ([1]; 60 mg/kg i.p. once a day for 5 days, p<0.05): significantly reduced
- reduction in the levels of 24S-hydroxycholesterol in the brain ([1]; 60 mg/kg i.p. once a day for 5 days, p=0.03): 37%
- levels of 24S-hydroxycholesterol in the brain ([1]; different doses (60 or 75 mg/kg i.p.), six hours after the injection): appeared to reduce the levels of 24S-hydroxycholesterol
- effect on levels of lathosterol in the brain ([1]; single 60 mg/kg i.p., 2 hours): no significant effect
- effect on levels of total cholesterol in the brain ([1]; single 60 mg/kg i.p., 2 hours): no significant effect
- reduction of levels of 24S-hydroxycholesterol in the brain ([1]; single 60 mg/kg i.p., 2 hours, not statistically significant (p>0.05)): 20%
- brain levels of dehydrolanosterol ([1]; voriconazole-treated mice (controls 0.14+0.05)): 1.9+0.7 ng/mg tissue
- brain levels of squalene ([1]; voriconazole-treated mice (controls 2.2+0.8), p=0.05): 1.7+0.6 ng/mg tissue
- brain levels of lanosterol ([1]; voriconazole-treated mice (controls 6.1+2.0), p<0.001): 27+10 ng/mg tissue
- level of voriconazole in the brain [2]: 43+8 μg/g wet weight
- concentration at 5 days ([2]; male, C57/B6 J, mouse, brain, read-out: level of voriconazole in the brain): 123 µM
- inhibition of cholesterol hydroxylation (in words) [3]: significant inhibition
- pKd ([4]; 0.3 μM purified P450, read-out: apparent Kd): 5.32
- binding weaker than that to CYP46A1 ([4]; CYP11A1 vs CYP46A1): ~100 fold
- effect on HMG CoA reductase mRNA levels [5]: significant suppressive effect
- effect on expression of CYP46A1 mRNA [5]: no significant effect
- effect on expression of HMG CoA synthase mRNA [5]: no significant effect
- pKd [6]: 7.30
- plasma concentration of 24S-hydroxycholesterol ([7]; pool of plasma, voriconazole-treated mice (control 18.8)): 13.2 ng/mL
- effect on plasma level of 27-hydroxycholesterol ([7]; voriconazole-treated mice): not significantly affected
- plasma level of 27-hydroxycholesterol ([7]; voriconazole-treated mice (controls 52)): 46 ng/mL
- suppression of plasma levels of 24S-hydroxycholesterol ([7]; vs control pool): about 30%
- pIC50 ([8]; read-out: IC50 for cholesterol 24-hydroxylation): 7.66
- pKi ([8]; estimated, competitive inhibition, cholesterol equal to the Km, read-out: Ki for cholesterol 24-hydroxylation): 7.96
- pIC50 ([8]; read-out: IC50 for 25- and 27-hydroxylations of 24S-hydroxycholesterol): 7.33
